Measured values from PubChem BioAssay (NCI).
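Cells were grown in 96-well plates and exposed to each compound for 48 hours at five concentrations; endpoints were interpolated linearly between bracketing concentrations, or set to the highest concentration if not reached. Here, GI50 denotes the concentration required for 50% inhibition of growth. TGI marks complete inhibition of growth.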

What was measured:
Assay in all cases: NCI anticancer screen, dose series, 48 h
[1] = test system: NCI-H23 lung
[2] = test system: T-47D breast
[3] = test system: MOLT-4 leukemia
[4] = test system: OVCAR-5 ovarian
[5] = test system: SK-OV-3 ovarian
[6] = test system: UO-31 renal
[7] = test system: LOX IMVI melanoma
[8] = test system: A549 NSCLC
[9] = test system: TK-10 renal
[10] = test system: RPMI-8226 leukemia
[11] = test system: SF-268 CNS
[12] = test system: UACC-257 melanoma
[13] = test system: HL-60(TB) leukemia
[14] = test system: CCRF-CEM leukemia
[15] = test system: IGROV1 ovarian
[16] = test system: BT-549 breast
[17] = test system: HOP-92 NSCLC
[18] = test system: HCT-15 colon
[19] = test system: SF-539 CNS
[20] = test system: SK-MEL-28 melanoma
[21] = test system: CAKI-1 renal
[22] = test system: PC-3 prostate
[23] = test system: HCC-2998 colon
[24] = test system: UACC-62 melanoma
[25] = test system: SNB-75 CNS
[26] = test system: OVCAR-4 ovarian
[27] = test system: HT29 colon
[28] = test system: HS 578T breast
[29] = test system: K-562 leukemia
[30] = test system: A498 renal
[31] = test system: KM12 colon
[32] = test system: SN12C renal
[33] = test system: OVCAR-8 ovarian
[34] = test system: MALME-3M melanoma
[35] = test system: EKVX NSCLC
[36] = test system: NCI-H226 lung
[37] = test system: SK-MEL-5 melanoma
[38] = test system: MCF7 breast
[39] = test system: SW-620 colon
[40] = test system: MDA-MB-231 breast
[41] = test system: NCI-H460 lung
[42] = test system: SNB-19 CNS
[43] = test system: MDA-MB-435
[44] = test system: SR leukemia
[45] = test system: NCI-H522 lung
[46] = test system: RXF 393 renal
[47] = test system: OVCAR-3 ovarian
[48] = test system: COLO 205 colon
[49] = test system: ACHN renal
[50] = test system: SK-MEL-2 melanoma
[51] = test system: U251 CNS
[52] = test system: NCI/ADR-RES ovarian
[53] = test system: SF-295 CNS
[54] = test system: HOP-62 NSCLC
[55] = test system: HCT-116 colon
[56] = test system: M14 melanoma
[57] = test system: DU-145 prostate
[58] = test system: 786-0 renal

COc1cc(/C=C2\C(=O)Nc3ccc(O)cc32)cc(OC)c1OC was tested, and the GI50 [1] was 6.76 µM, the TGI [1] was 24.8 µM and the GI50 [2] was 7.55 µM. It also gave a TGI [2] of over 100 µM, a GI50 [3] of 1.24 µM and a TGI [3] of 28.5 µM. It also gave a GI50 [4] of 17.5 µM, a TGI [4] of 33.5 µM and a GI50 [5] of 27.8 µM. For the same compound, the TGI [5] was 98.1 µM, the GI50 [6] was 12.1 µM and the TGI [6] was 33.3 µM. For the same compound, the GI50 [7] was 4.53 µM, the TGI [7] was 16.6 µM and the GI50 [8] was 21 µM. The TGI [8] was 88 µM, the GI50 [9] was 40 µM and the TGI [9] was over 100 µM. The GI50 [10] was 3.53 µM, the TGI [10] was 21.3 µM and the GI50 [11] was 6.49 µM. It also gave a TGI [11] of 26.8 µM, a GI50 [12] of 8.48 µM and a TGI [12] of 22.1 µM. For the same compound, the GI50 [13] was 6.11 µM, the TGI [13] was 40.7 µM and the GI50 [14] was 4.34 µM. For the same compound, the TGI [14] was 34.4 µM, the GI50 [15] was 12.1 µM and the TGI [15] was 35.7 µM. The GI50 [16] was 11 µM, the TGI [16] was 29.4 µM and the GI50 [17] was 7.92 µM. It also gave a TGI [17] of 30.2 µM, a GI50 [18] of 13.1 µM and a TGI [18] of 41 µM. For the same compound, the GI50 [19] was 5.86 µM, the TGI [19] was 81.5 µM and the GI50 [20] was 14.1 µM. For the same compound, the TGI [20] was 30.2 µM, the GI50 [21] was 23.1 µM and the TGI [21] was 83.1 µM. The GI50 [22] was 2.4 µM, the TGI [22] was 19.1 µM and the GI50 [23] was 7.46 µM. The TGI [23] was 20.9 µM, the GI50 [24] was 11.7 µM and the TGI [24] was 26.6 µM. The GI50 [25] was 8.54 µM, the TGI [25] was 33.7 µM and the GI50 [26] was 11.1 µM. The TGI [26] was 55.7 µM, the GI50 [27] was 10.3 µM and the TGI [27] was 25.3 µM. For the same compound, the GI50 [28] was 13.5 µM, the TGI [28] was over 100 µM and the GI50 [29] was 3.83 µM. It also gave a TGI [29] of over 100 µM, a GI50 [30] of 18.3 µM and a TGI [30] of 40.6 µM. It also gave a GI50 [31] of 17 µM, a TGI [31] of over 100 µM and a GI50 [32] of 15.5 µM. The TGI [32] was 72.2 µM, the GI50 [33] was 18.3 µM and the TGI [33] was 65.6 µM. For the same compound, the GI50 [34] was 17.9 µM, the TGI [34] was 44.4 µM and the GI50 [35] was 18.6 µM. It also gave a TGI [35] of 59 µM, a GI50 [36] of 21.1 µM and a TGI [36] of 54.4 µM. It also gave a GI50 [37] of 6.31 µM, a TGI [37] of 25.1 µM and a GI50 [38] of 8.59 µM. For the same compound, the TGI [38] was over 100 µM, the GI50 [39] was 10.5 µM and the TGI [39] was over 100 µM. It also gave a GI50 [40] of 8.06 µM, a TGI [40] of 37 µM and a GI50 [41] of 8.69 µM. The TGI [41] was 35.9 µM, the GI50 [42] was 11.9 µM and the TGI [42] was 40.6 µM. The GI50 [43] was 3.96 µM, the TGI [43] was 17.1 µM and the GI50 [44] was 1.75 µM. For the same compound, the TGI [44] was 9.5 µM, the GI50 [45] was 4.24 µM and the TGI [45] was 17.1 µM. The GI50 [46] was 2.19 µM, the TGI [46] was 5.94 µM and the GI50 [47] was 6.44 µM. It also gave a TGI [47] of 28.3 µM, a GI50 [48] of 20 µM and a TGI [48] of 59.6 µM. For the same compound, the GI50 [49] was 15.9 µM, the TGI [49] was 78.6 µM and the GI50 [50] was 13.6 µM. It also gave a TGI [50] of 34.7 µM, a GI50 [51] of 4.08 µM and a TGI [51] of 16.8 µM. For the same compound, the GI50 [52] was 17.8 µM, the TGI [52] was 59 µM and the GI50 [53] was 26.4 µM. It also gave a TGI [53] of over 100 µM.

In the case of Cc1cc(C)c(CNC(=O)c2cc(Cl)c3c(c2C)O[C@@](C)(C2CCC(N(C)C)CC2)O3)c(=O)[nH]1 (stereo partly drawn), the GI50 [54] is reported as over 100 µM, the TGI [54] is reported as over 100 µM and the GI50 [1] is reported as 75.6 µM. For the same compound, the TGI [1] was over 100 µM, the GI50 [2] was over 100 µM and the TGI [2] was over 100 µM. For the same compound, the GI50 [3] was 58.6 µM, the TGI [3] was over 100 µM and the GI50 [4] was over 100 µM. It also gave a TGI [4] of over 100 µM, a GI50 [55] of 40.3 µM and a TGI [55] of over 100 µM. For the same compound, the GI50 [6] was 45.6 µM, the TGI [6] was over 100 µM and the GI50 [7] was 47.8 µM. It also gave a TGI [7] of over 100 µM, a GI50 [8] of 71.6 µM and a TGI [8] of over 100 µM. The GI50 [9] was over 100 µM, the TGI [9] was over 100 µM and the GI50 [10] was 38 µM. For the same compound, the TGI [10] was over 100 µM, the GI50 [11] was 60.7 µM and the TGI [11] was over 100 µM. For the same compound, the GI50 [12] was 95.3 µM, the TGI [12] was over 100 µM and the GI50 [13] was 61.5 µM. The TGI [13] was over 100 µM, the GI50 [14] was 49.9 µM and the TGI [14] was over 100 µM. The GI50 [15] was 70.5 µM, the TGI [15] was over 100 µM and the GI50 [16] was 42 µM. For the same compound, the TGI [16] was over 100 µM, the GI50 [17] was 18.4 µM and the TGI [17] was over 100 µM. The GI50 [18] was over 100 µM, the TGI [18] was over 100 µM and the GI50 [19] was 57.9 µM. It also gave a TGI [19] of over 100 µM, a GI50 [20] of over 100 µM and a TGI [20] of over 100 µM. For the same compound, the GI50 [21] was 93.1 µM, the TGI [21] was over 100 µM and the GI50 [22] was 69.7 µM. For the same compound, the TGI [22] was over 100 µM, the GI50 [23] was over 100 µM and the TGI [23] was over 100 µM. For the same compound, the GI50 [24] was over 100 µM, the TGI [24] was over 100 µM and the GI50 [25] was 15.2 µM. The TGI [25] was over 100 µM, the GI50 [26] was 83.9 µM and the TGI [26] was over 100 µM. It also gave a GI50 [27] of 33.8 µM, a TGI [27] of over 100 µM and a GI50 [28] of 32.5 µM. The TGI [28] was over 100 µM, the GI50 [29] was 41.6 µM and the TGI [29] was over 100 µM. It also gave a GI50 [30] of 27.8 µM, a TGI [30] of over 100 µM and a GI50 [31] of over 100 µM. The TGI [31] was over 100 µM, the GI50 [32] was over 100 µM and the TGI [32] was over 100 µM. For the same compound, the GI50 [56] was 33.8 µM, the TGI [56] was over 100 µM and the GI50 [33] was over 100 µM. It also gave a TGI [33] of over 100 µM, a GI50 [34] of 45.3 µM and a TGI [34] of over 100 µM. The GI50 [35] was over 100 µM, the TGI [35] was over 100 µM and the GI50 [57] was over 100 µM. For the same compound, the TGI [57] was over 100 µM, the GI50 [58] was 33.1 µM and the TGI [58] was over 100 µM. The GI50 [36] was 93 µM, the TGI [36] was over 100 µM and the GI50 [37] was 21.3 µM. It also gave a TGI [37] of 63.2 µM, a GI50 [38] of 49.5 µM and a TGI [38] of over 100 µM. For the same compound, the GI50 [39] was over 100 µM, the TGI [39] was over 100 µM and the GI50 [40] was 59.5 µM. The TGI [40] was over 100 µM, the GI50 [41] was over 100 µM and the TGI [41] was over 100 µM. The GI50 [42] was over 100 µM, the TGI [42] was over 100 µM and the GI50 [43] was 58 µM. It also gave a TGI [43] of over 100 µM, a GI50 [45] of over 100 µM and a TGI [45] of over 100 µM. For the same compound, the GI50 [46] was 15.9 µM, the TGI [46] was 71.5 µM and the GI50 [47] was over 100 µM. The TGI [47] was over 100 µM, the GI50 [48] was over 100 µM and the TGI [48] was over 100 µM. For the same compound, the GI50 [49] was over 100 µM, the TGI [49] was over 100 µM and the GI50 [50] was over 100 µM. The TGI [50] was over 100 µM, the GI50 [51] was 68 µM and the TGI [51] was over 100 µM. It also gave a GI50 [52] of over 100 µM, a TGI [52] of over 100 µM and a GI50 [53] of over 100 µM. It also gave a TGI [53] of over 100 µM.
